Measured values taken from ChEMBL document CHEMBL1201862, “PubChem BioAssay data set” (2004).
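Values below derive from 48-hour exposures of cells grown in 96-well plates, with endpoints linearly interpolated between the two concentrations bracketing the appropriate inhibition level. GI50: concentration for 50% inhibition of growth.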 Calls of active or inactive are those of the source. Rule as the data show it: active = GI50 up to about 1.1 µM and inactive = higher.

Columns and labels:
Experiment in all cases: NCI tumour cell line growth inhibition, 48 h
SF-539 = system: SF-539
OVCAR-5 = system: OVCAR-5
BT-549 = system: BT-549
SNB-75 = system: SNB-75
SF-268 = system: SF-268
SN12C = system: SN12C
UACC-62 = system: UACC-62
A549 = system: A549
PC-3 = system: PC-3
OVCAR-8 = system: OVCAR-8
SK-MEL-2 = system: SK-MEL-2
SF-295 = system: SF-295
M19-MEL = system: M19-MEL
XF498 = system: XF498
SK-MEL-5 = system: SK-MEL-5
EKVX = system: EKVX
U-251 = system: U-251
MDA-MB-435 = system: MDA-MB-435
HL-60 = system: HL-60
SNB-19 = system: SNB-19

Structure (SMILES)	GI50 (SF-539)	GI50 (OVCAR-5)	GI50 (BT-549)	GI50 (SNB-75)	GI50 (SF-268)	GI50 (SN12C)	GI50 (UACC-62)	GI50 (A549)	GI50 (PC-3)	GI50 (OVCAR-8)	GI50 (SK-MEL-2)	GI50 (SF-295)	GI50 (M19-MEL)	GI50 (XF498)	GI50 (SK-MEL-5)	GI50 (EKVX)	GI50 (U-251)	GI50 (MDA-MB-435)	GI50 (HL-60)	GI50 (SNB-19)
O=P1(N(CCCl)CCCl)NCCCO1 (centres undefined) [CYCLOPHOSPHAMIDE ANHYDROUS]	> 250 µM (inactive)	> 239 µM (inactive)	> 250 µM (inactive)	> 232 µM (inactive)	> 250 µM (inactive)	> 250 µM (inactive)	> 250 µM (inactive)	> 239 µM (inactive)	> 250 µM (inactive)	> 238 µM (inactive)	> 238 µM (inactive)	169 µM (inactive)	218 µM (inactive)	177 µM (inactive)	> 242 µM (inactive)	> 250 µM (inactive)	> 250 µM (inactive)	> 250 µM (inactive)	183 µM (inactive)	> 250 µM (inactive)
CC1=NN(C(=O)Cc2ccccc2)C(=O)/C1=C\c1cccc(O)c1	> 100 µM (inactive)	> 100 µM (inactive)		> 100 µM (inactive)	> 100 µM (inactive)	> 100 µM (inactive)		> 100 µM (inactive)		> 100 µM (inactive)	> 100 µM (inactive)	> 100 µM (inactive)	> 100 µM (inactive)	> 100 µM (inactive)	> 100 µM (inactive)	> 100 µM (inactive)	> 100 µM (inactive)		> 100 µM (inactive)	> 100 µM (inactive)
Cc1nc2ccccc2c(=O)n1/N=C(\N=N\c1ccccc1)c1ccccc1Cl	23.5 µM (inactive)	> 100 µM (inactive)		23.8 µM (inactive)	39 µM (inactive)	32.4 µM (inactive)	54.6 µM (inactive)	52.5 µM (inactive)		59.7 µM (inactive)	20.7 µM (inactive)	1.04 µM (active)	> 84.5 µM (inactive)	18.7 µM (inactive)	38.3 µM (inactive)	22.4 µM (inactive)	40.6 µM (inactive)		33.3 µM (inactive)	48.1 µM (inactive)
CCOCC(=O)N[C@H]1CCc2cc(OC)c(OC)c(OC)c2-c2ccc(SC)c(=O)cc21	< 0.01 µM (active)	0.398 µM (active)	< 0.01 µM (active)	0.0102 µM (active)	< 0.01 µM (active)	< 0.01 µM (active)	< 0.01 µM (active)	< 0.01 µM (active)	< 0.0327 µM (active)	< 0.01 µM (active)	< 0.01 µM (active)	< 0.01 µM (active)	< 0.01 µM (active)	< 0.0224 µM (active)	< 0.01 µM (active)	7.94 µM (inactive)	< 0.01 µM (active)	< 0.01 µM (active)	0.0217 µM (active)	< 0.01 µM (active)
Cn1c(=O)c(C(=O)NC(=O)OCc2ccccc2)cn(CCSCCOC(=O)NCCCCCCNC(=O)OCCSCCn2cc(C(=O)NC(=O)OCc3ccccc3)c(=O)n(C)c2=O)c1=O	32.5 µM (inactive)	> 100 µM (inactive)		17.8 µM (inactive)	84.9 µM (inactive)	> 100 µM (inactive)	> 100 µM (inactive)	> 100 µM (inactive)		> 100 µM (inactive)	> 100 µM (inactive)		> 100 µM (inactive)	16.9 µM (inactive)	> 100 µM (inactive)	> 100 µM (inactive)	63.4 µM (inactive)		> 100 µM (inactive)	41.2 µM (inactive)
Clc1ccc(SC(/C=C/NNC2=NN=C(c3ccccc3)C(c3ccccc3)N2)c2ccccc2)cc1 (centres undefined)	26.4 µM (inactive)	33.8 µM (inactive)		15.2 µM (inactive)	14.4 µM (inactive)	29.4 µM (inactive)	27.6 µM (inactive)	29.2 µM (inactive)		28.2 µM (inactive)	18.7 µM (inactive)	19.3 µM (inactive)	36.5 µM (inactive)	18.7 µM (inactive)	14.7 µM (inactive)	26.9 µM (inactive)	31.2 µM (inactive)		14.6 µM (inactive)	80.5 µM (inactive)
CC1(Br)C(=O)NC(=O)N([C@H]2C[C@H](O)[C@@H](CO)O2)C1N=[N+]=[N-] (some centres undefined)	> 100 µM (inactive)	> 76.2 µM (inactive)		> 100 µM (inactive)	> 100 µM (inactive)	> 100 µM (inactive)	> 100 µM (inactive)	> 100 µM (inactive)		> 100 µM (inactive)	> 100 µM (inactive)	> 100 µM (inactive)	> 100 µM (inactive)	> 100 µM (inactive)	> 100 µM (inactive)	> 100 µM (inactive)	> 100 µM (inactive)		> 100 µM (inactive)	> 100 µM (inactive)
Cc1c(C(=O)O)n(C)c(=O)n(C)c1=O	> 100 µM (inactive)	> 100 µM (inactive)		> 100 µM (inactive)	> 100 µM (inactive)	> 100 µM (inactive)	> 100 µM (inactive)	> 100 µM (inactive)		> 100 µM (inactive)	> 100 µM (inactive)	> 100 µM (inactive)	> 100 µM (inactive)	> 100 µM (inactive)	> 100 µM (inactive)	> 100 µM (inactive)	> 100 µM (inactive)		> 100 µM (inactive)	> 100 µM (inactive)
COC(=O)C12OCC34C(CC5C(C)C6=CC(=O)OC6=CC5(C)C3C(O)C1O)OC(=O)C(OC(C)=O)C24 (centres undefined)	15.2 µM (inactive)	23.1 µM (inactive)		0.887 µM (active)	17 µM (inactive)	17.1 µM (inactive)	12.9 µM (inactive)	19.8 µM (inactive)		16.3 µM (inactive)	10.1 µM (inactive)	23 µM (inactive)	15.4 µM (inactive)	12.2 µM (inactive)	15.3 µM (inactive)	16.7 µM (inactive)	23.5 µM (inactive)		12.1 µM (inactive)	33.2 µM (inactive)
COc1cc(-c2cc(CCC(=O)Nc3ccccc3[N+](=O)[O-])n(-c3ccc([N+](=O)[O-])cc3[N+](=O)[O-])n2)ccc1O	> 10 µM (inactive)	> 10 µM (inactive)		89.9 µM (inactive)	> 10 µM (inactive)	> 10 µM (inactive)	38.4 µM (inactive)	> 10 µM (inactive)		> 10 µM (inactive)	> 10 µM (inactive)	> 10 µM (inactive)	> 10 µM (inactive)	> 100 µM (inactive)	> 10 µM (inactive)	> 10 µM (inactive)	> 10 µM (inactive)		> 10 µM (inactive)	> 10 µM (inactive)
